Here are results for seven compounds from patent US9187529B2 (priority 2011, dated 2015).

Where “and” joins values, the source holds several entries; their conditions need not be identical. Equal values may be shown once. Ends that are not written are not given here. Peptide text beside a SMILES is read from it.

The conditions of data set [1]: rabbit, in vivo.
For the next data set, the system named is S. aureus MN8. In kind it is cell-based, Staphylococcus aureus.
The test system of data set [2] is TSST-1 production of S. aureus MN8. In kind it is cell-based, Staphylococcus aureus.

`C[C@H](NC(=O)[C@H](CO)NC(=O)[C@H](CCCCN)NC(=O)[C@H](Cc1c[nH]cn1)NC(=O)[C@H](CO)NC(=O)[C@H](CCCCN)NC(=O)[C@H](CCCCN)NC(=O)[C@H](CCCCN)NC(=O)[C@H](Cc1c[nH]cn1)NC(=O)[C@@H]1CCCN1C(=O)[C@H](CCCCN)NC(=O)[C@H](Cc1ccc(O)cc1)NC(=O)[C@H](CCCCN)NC(=O)[C@H](CCCCN)NC(=O)[C@H](CCCCN)NC(=O)[C@H](CCCCN)NC(=O)[C@@H]1CCCN1C(=O)[C@H](CCCCN)NC(=O)[C@@H](N)CO)C(=O)N[C@@H](CCCCN)C(=O)N[C@@H](CCCCN)C(=O)N[C@@H](CCCCN)C(=O)O` [SP-1] (H-SKPKKKKYKPHKKKSHKSAKKK-OH): the “signs of inflammation and vaginal irritation” value in data set [1] was “No irritation or inflammation was observed”.

On to SFPTTATYFPAFDLSAGSAQVA [SP-3], for which, in the data set on S. aureus MN8, the antimicrobial activity result was “lacked antimicrobial”. Besides, in data set [2], the “TSST-1 % of No Peptide Control” value is given as 100 % of No Peptide Control; the TSST-1 inhibition activity entry is “lacked antimicrobial and TSST-1 inhibition activity”.

Consider SFPTTKTYFPHFDLSHGSAQVK [Hbg-1], for which, in the data set with S. aureus MN8, the antimicrobial activity entry is recorded as “No antimicrobial activity was observed”; the “viable count (10^8 CFU/mL)” value is 20 and 22 and 17 and 21 and 19 and 25.

With “SFPTTKTYFPHFDLSHGSAQVK-agarose beads (not fully specified (C-terminus)) [Hbg-3]”, in the data set on S. aureus MN8, the antimicrobial activity entry was “not antimicrobial”; the “viable count (10^8 CFU/mL)” value was 21 and 22 and 16 and 20 and 23. In addition, the TSST-1 inhibition activity result in data set [2] was “retained TSST-1 inhibition activity”.

With STKPFFYFLHTQVKASPTSHDG [Hbg-2], in the data set with S. aureus MN8, the antimicrobial activity result was “not antimicrobial”; the “viable count (10^8 CFU/mL)” value was 24 and 22 and 30 and 25 and 23. Further, the TSST-1 inhibition activity result in data set [2] is “comparably active as Hbg-1”.

On to “human neutrophil peptide-1 [HNP-1, reference compound]”, for which, in the data set with S. aureus MN8, the antimicrobial activity result is recorded as “no antimicrobial activity was observed” and the “inhibition of MN8 growth” value is listed as “approximately 1 log”. Also, in data set [2], the TSST-1 inhibition activity entry is reported as “highly inhibitory of production of TSST-1” and the “dose (as low as) giving complete inhibition of TSST-1 production” value was 10^−3 μg/mL.

Regarding “human neutrophil peptide-2 (CYCRIPACIAGERRYGTCIYQGRLWAFCC; listed as Homo sapiens) [HNP-2, reference compound]”, in the data set on S. aureus MN8, the antimicrobial activity entry is recorded as “no antimicrobial activity was observed” and the “inhibition of MN8 growth” value is “approximately 1 log”. In data set [2], the TSST-1 inhibition activity entry was “highly inhibitory of production of TSST-1” and the “dose (as low as) giving complete inhibition of TSST-1 production” value is 10^−3 μg/mL.
